Where two headings read alike, the source gives them in different places.
How the values were obtained:
MKN45 cells = test: MKN45 cell proliferation assay (Cell-Titer-Glo, 120 h); assay type: cell-based; conditions: for EC50: Homo sapiens, MKN-45, 120 h, Cell-Titer-Glo, read-out: MKN45 Cell Prolif. 120 hr (EC50); for MKN45 Cell Prolif. 120 hr (Ymin-Obs): minimal percent of DMSO control observed in the concentrations tested
How it was run: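 Cells seeded at 400/well onto pre-printed 10-point half-log dilutions (top 1 or 10 uM, 0.1% DMSO final), in triplicate, and grown 120 h at 37 C. Viability by Cell-Titer-Glo luminescence, blank-subtracted and normalised to DMSO; EC50 from four-parameter logistic fit, with observed minimal % of control recorded as Ymin-obs.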

WEE1 = molecular target: T1, WEE1 (Homo sapiens, UniProt P30291+Q96SW2); test: WEE1-ePL degradation assay (LentiX-WEE1-ePL-GSPT1-ND cells, InCELL Hunter luminescence, 4 h); assay type: cell-based; conditions: 293T-LentiX WEE1-ePL cells; for DC50: read-out: 293T-LentiX WEE1-ePL Degradation 4 hr (EC50)
T1 construct: C-terminal ePL-tagged (DiscoverX, Fremont, CA) full-length WEE1 expression construct; expressed in transfected cells; host or cells: LentiX-HEK293T (Invitrogen), lentiviral transduction; co-expressing GSPT1-GN (G576N, lacking the first 158 amino acids)
How it was run: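 First, compounds were pre-plated as 10-point, 3-fold dilutions (top 1 uM or 10 uM) with DMSO control; next, WEE1-ePL-expressing HEK293T cells were added and held 4 h at 37 °C; finally, InCELL Hunter reagent was applied for 30 min before luminescence reading. A 4PL fit gave EC50 and Ymin.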

[1] = lower limit of the fit (Ymin=0 luciferase inhibitor, Ymax DMSO control)
[2] = lower limit of the fit (0 = luciferase inhibitor, Ymax = DMSO control)

| EC50 (MKN45 cells) | 293T-LentiX WEE1-ePL Degradation 4 hr (Ymin) (WEE1; [1]) | DC50 (WEE1) | EC50 (MKN45 cells; growth inhibition) | 293T-LentiX WEE1-ePL Degradation 4 hr (Ymin) (WEE1; [2]) | SMILES | MKN45 Cell Prolif. 120 hr (Ymin-Obs) (MKN45 cells) |
| --- | --- | --- | --- | --- | --- | --- |
| – | – | 67.4 nM | 90.5 nM | 37 | CN1CC[C@@H](c2ccc3cc(CN4CC[C@H](Oc5ccc6c(c5)CN(C5CCC(=O)NC5=O)C6=O)C4)ccc3n2)C1 (stereo partly drawn) [3-(5-{[(3S)-1-({2-[(3R)-1-methylpyrrolidin-3-yl]quinolin-6-yl}methyl)pyrrolidin-3-yl]oxy}-1-oxo-2,3-dihydro-1H-isoindol-2-yl)piperidine-2,6-dione] | 11.69 |
| – | – | 17.5 nM | 20.9 nM | 36 | O=C1CCC(N2Cc3cc(O[C@H]4CCN(Cc5ccc6nc(N7CC[C@@H](O)C7)ccc6c5)C4)ccc3C2=O)C(=O)N1 (stereo partly drawn) [3-(5-{[(3S)-1-({2-[(3R)-3-hydroxypyrrolidin-1-yl]quinolin-6-yl}methyl)pyrrolidin-3-yl]oxy}-1-oxo-2,3-dihydro-1H-isoindol-2-yl)piperidine-2,6-dione] | 11.85 |
| – | – | 4.32 nM | 3.91 nM | 34 | CO[C@@H]1CCCN(c2ccc3cc(CN4CC[C@H](Oc5ccc6c(c5)CN(C5CCC(=O)NC5=O)C6=O)C4)ccc3n2)C1 (stereo partly drawn) [3-(5-{[(3S)-1-({2-[(3R)-3-methoxypiperidin-1-yl]quinolin-6-yl}methyl)pyrrolidin-3-yl]oxy}-1-oxo-2,3-dihydro-1H-isoindol-2-yl)piperidine-2,6-dione] | 6.79 |
| – | – | 2.46 nM | 3.67 nM | 37 | CO[C@@H]1CCN(c2ccc3cc(CN4CC[C@H](Oc5ccc6c(c5)CN(C5CCC(=O)NC5=O)C6=O)C4)ccc3n2)C1 (stereo partly drawn) [3-(5-{[(3S)-1-({2-[(3R)-3-methoxypyrrolidin-1-yl]quinolin-6-yl}methyl)pyrrolidin-3-yl]oxy}-1-oxo-2,3-dihydro-1H-isoindol-2-yl)piperidine-2,6-dione] | 8.99 |
| – | – | 67.5 nM | 59.7 nM | 37 | CN1CC[C@H](c2ccc3cc(CN4CC[C@H](Oc5ccc6c(c5)CN(C5CCC(=O)NC5=O)C6=O)C4)ccc3n2)C1 (stereo partly drawn) [3-(5-{[(3S)-1-({2-[(3S)-1-methylpyrrolidin-3-yl]quinolin-6-yl}methyl)pyrrolidin-3-yl]oxy}-1-oxo-2,3-dihydro-1H-isoindol-2-yl)piperidine-2,6-dione] | 12.73 |
| – | – | 10.4 nM | 11.4 nM | 36.5 | O=C1CCC(N2Cc3cc(O[C@H]4CCN(Cc5ccc6nc(N7CC[C@H](O)C7)ccc6c5)C4)ccc3C2=O)C(=O)N1 (stereo partly drawn) [3-(5-{[(3S)-1-({2-[(3S)-3-hydroxypyrrolidin-1-yl]quinolin-6-yl}methyl)pyrrolidin-3-yl]oxy}-1-oxo-2,3-dihydro-1H-isoindol-2-yl)piperidine-2,6-dione] | 7.1 |
| – | – | 5.83 nM | 5.29 nM | 34 | CO[C@H]1CCCN(c2ccc3cc(CN4CC[C@H](Oc5ccc6c(c5)CN(C5CCC(=O)NC5=O)C6=O)C4)ccc3n2)C1 (stereo partly drawn) [3-(5-{[(3S)-1-({2-[(3S)-3-methoxypiperidin-1-yl]quinolin-6-yl}methyl)pyrrolidin-3-yl]oxy}-1-oxo-2,3-dihydro-1H-isoindol-2-yl)piperidine-2,6-dione] | 10.12 |
| – | – | 3.58 nM | 1.58 nM | 34 | CO[C@H]1CCN(c2ccc3cc(CN4CC[C@H](Oc5ccc6c(c5)CN(C5CCC(=O)NC5=O)C6=O)C4)ccc3n2)C1 (stereo partly drawn) [3-(5-{[(3S)-1-({2-[(3S)-3-methoxypyrrolidin-1-yl]quinolin-6-yl}methyl)pyrrolidin-3-yl]oxy}-1-oxo-2,3-dihydro-1H-isoindol-2-yl)piperidine-2,6-dione] | 9.12 |
| – | – | 3.2 nM | 6.09 nM | 37 | O=C1CCC(N2Cc3cc(O[C@H]4CCN(Cc5ccc6nc(N7C[C@H]8CCO[C@H]8C7)ccc6c5)C4)ccc3C2=O)C(=O)N1 (stereo partly drawn) [3-(5-{[(3S)-1-({2-[(3aR,6aR)-hexahydro-2H-furo[2,3-c]pyrrol-5-yl]quinolin-6-yl}methyl)pyrrolidin-3-yl]oxy}-1-oxo-2,3-dihydro-1H-isoindol-2-yl)piperidine-2,6-dione] | 14.13 |

Continued, molecule first:

| SMILES | EC50 (MKN45 cells) | 293T-LentiX WEE1-ePL Degradation 4 hr (Ymin) (WEE1; [1]) | DC50 (WEE1) | EC50 (MKN45 cells; growth inhibition) | 293T-LentiX WEE1-ePL Degradation 4 hr (Ymin) (WEE1; [2]) | MKN45 Cell Prolif. 120 hr (Ymin-Obs) (MKN45 cells) |
| --- | --- | --- | --- | --- | --- | --- |
| C[C@@H]1CC(c2ccc3cc(CN4CC[C@H](Oc5ccc6c(c5)CN(C5CCC(=O)NC5=O)C6=O)C4)ccc3n2)C[C@@H](C)O1 (stereo partly drawn) [3-(5-{[(3S)-1-({2-[(2R,6R)-2,6-dimethyloxan-4-yl]quinolin-6-yl}methyl)pyrrolidin-3-yl]oxy}-1-oxo-2,3-dihydro-1H-isoindol-2-yl)piperidine-2,6-dione] | 5.09 nM | 25.33 | 5.2 nM | – | – | 10.09 |
| C[C@@H]1CC(c2ccc3cc(CN4CC[C@H](Oc5ccc6c(c5)CN(C5CCC(=O)NC5=O)C6=O)C4)ccc3n2)C[C@H](C)O1 (stereo partly drawn) [3-(5-{[(3S)-1-({2-[(2R,6S)-2,6-dimethyloxan-4-yl]quinolin-6-yl}methyl)pyrrolidin-3-yl]oxy}-1-oxo-2,3-dihydro-1H-isoindol-2-yl)piperidine-2,6-dione] | – | – | 11.7 nM | 10.4 nM | 30.42 | 14.48 |
| C[C@H]1CC(c2ccc3cc(CN4CC[C@H](Oc5ccc6c(c5)CN(C5CCC(=O)NC5=O)C6=O)C4)ccc3n2)CCO1 (stereo partly drawn) [3-(5-{[(3S)-1-({2-[(2S)-2-methyloxan-4-yl]quinolin-6-yl}methyl)pyrrolidin-3-yl]oxy}-1-oxo-2,3-dihydro-1H-isoindol-2-yl)piperidine-2,6-dione] | – | – | 2.97 nM | 4.39 nM | 28.55 | 10.88 |
| CN1CC[C@@H](c2ncc3cc(CN4CC[C@H](Oc5ccc6c(c5)CN(C5CCC(=O)NC5=O)C6=O)C4)ccc3n2)C1 (stereo partly drawn) [3-(5-{[(3S)-1-({2-[(3R)-1-methylpyrrolidin-3-yl]quinazolin-6-yl}methyl)pyrrolidin-3-yl]oxy}-1-oxo-2,3-dihydro-1H-isoindol-2-yl)piperidine-2,6-dione] | 48.4 nM | 37.05 | 225 nM | – | – | 13.19 |
| O=C1CCC(N2Cc3cc(O[C@H]4CCN(Cc5ccc6nc([C@H]7CCCOC7)ncc6c5)C4)ccc3C2=O)C(=O)N1 (stereo partly drawn) [3-(5-{[(3S)-1-({2-[(3R)-oxan-3-yl]quinazolin-6-yl}methyl)pyrrolidin-3-yl]oxy}-1-oxo-2,3-dihydro-1H-isoindol-2-yl)piperidine-2,6-dione] | – | – | 16 nM | 8.8 nM | 28.5 | 6.66 |
| O=C1CCC(N2Cc3cc(O[C@H]4CCN(Cc5ccc6nc([C@H]7CCCOC7)ccc6c5)C4)ccc3C2=O)C(=O)N1 (stereo partly drawn) [3-(5-{[(3S)-1-({2-[(3R)-oxan-3-yl]quinolin-6-yl}methyl)pyrrolidin-3-yl]oxy}-1-oxo-2,3-dihydro-1H-isoindol-2-yl)piperidine-2,6-dione] | – | – | 3.33 nM | 5.28 nM | 32.33 | 12.5 |
| CN1CC[C@H](c2ncc3cc(CN4CC[C@H](Oc5ccc6c(c5)CN(C5CCC(=O)NC5=O)C6=O)C4)ccc3n2)C1 (stereo partly drawn) [3-(5-{[(3S)-1-({2-[(3S)-1-methylpyrrolidin-3-yl]quinazolin-6-yl}methyl)pyrrolidin-3-yl]oxy}-1-oxo-2,3-dihydro-1H-isoindol-2-yl)piperidine-2,6-dione] | 84.1 nM | 36.52 | 248 nM | – | – | 17.35 |
| O=C1CCC(N2Cc3cc(O[C@H]4CCN(Cc5ccc6nc([C@@H]7CCCOC7)ncc6c5)C4)ccc3C2=O)C(=O)N1 (stereo partly drawn) [3-(5-{[(3S)-1-({2-[(3S)-oxan-3-yl]quinazolin-6-yl}methyl)pyrrolidin-3-yl]oxy}-1-oxo-2,3-dihydro-1H-isoindol-2-yl)piperidine-2,6-dione] | – | – | 33.8 nM | 19.4 nM | 31 | 5.31 |
| O=C1CCC(N2Cc3cc(O[C@H]4CCN(Cc5ccc6nc([C@@H]7CCCOC7)ccc6c5)C4)ccc3C2=O)C(=O)N1 (stereo partly drawn) [3-(5-{[(3S)-1-({2-[(3S)-oxan-3-yl]quinolin-6-yl}methyl)pyrrolidin-3-yl]oxy}-1-oxo-2,3-dihydro-1H-isoindol-2-yl)piperidine-2,6-dione] | – | – | 2.15 nM | 3.59 nM | 32 | 10.6 |
| O=C1CCC(N2Cc3cc(O[C@H]4CCN(Cc5ccc6nc(N7C[C@H]8CCO[C@H]8C7)ncc6c5)C4)ccc3C2=O)C(=O)N1 (stereo partly drawn) [3-(5-{[(3S)-1-({2-[(3aR,6aR)-hexahydro-2H-furo[2,3-c]pyrrol-5-yl]quinazolin-6-yl}methyl)pyrrolidin-3-yl]oxy}-1-oxo-2,3-dihydro-1H-isoindol-2-yl)piperidine-2,6-dione] | – | – | 12.6 nM | 13.4 nM | 35 | 13.09 |

— patent US20240067632A1, “WEE1 Degrading Compounds and Uses Thereof” (Bristol-Myers Squibb Company, priority 2022, published 2024)
